Assay: Peptide solubility measurement (micro‐BCA after centrifugation)
Type: physicochemical
Conditions: 200 μM peptide in 10 mM PBS (140 mM KCl), centrifuged 18,000 g 30 min, supernatant by micro‐BCA
Procedure: Dry peptides were dissolved in HFIP to prepare the stock solutions. The concentrations of the stock solutions were measured by using freeze dried aliquots of the stock solutions with the micro‐BCA assay. Based on the stock solution concentrations, aliquots were prepared and lyophilized. The dry peptides were reconstructed in 10 mM phosphate buffer saline (140 mM KCl), pH 7.4 at a final peptide concentration of 200 μM. Immediately after reconstitution 10 μl of the sample was removed and the soluble peptide concentration was measured using the micro‐BCA assay. […] After 5 days, a 450 μl portion from each sample were removed and centrifuged at 18,000 g for 30 min (25°C). A 100 μl portion of the centrifuged supernatant was subjected to the micro‐BCA assay to calculate the amount of soluble peptide left after 5 days.

Apparent solubility: amount of peptide remaining in the solution (pH 7.4, stood 7 days at room temperature) | Apparent solubility compared to wild type hIAPP (pH 7.4, 25°C, 5 days, differences not significant (p > 0.05)) | Compound
greater than 50 μM | – | CC[C@H](C)[C@H](NC(=O)[C@H](C)NC(=O)[C@@H]1CCCN1C(=O)[C@H](Cc1ccccc1)NC(=O)[C@H](CC(N)=O)NC(=O)[C@H](CC(N)=O)NC(=O)[C@H](CO)NC(=O)[C@H](CO)NC(=O)[C@H](Cc1c[nH]cn1)NC(=O)[C@@H](NC(=O)[C@H](CC(C)C)NC(=O)[C@H](Cc1ccccc1)NC(=O)[C@H](CC(N)=O)NC(=O)[C@H](C)NC(=O)[C@H](CC(C)C)NC(=O)[C@H](CCCNC(=N)N)NC(=O)[C@H](CCC(N)=O)NC(=O)[C@@H](NC(=O)[C@H](C)NC(=O)[C@@H]1CSSC[C@H](NC(=O)[C@@H](N)CCCCN)C(=O)N[C@@H](CC(N)=O)C(=O)N[C@@H]([C@@H](C)O)C(=O)N[C@@H](C)C(=O)N[C@@H]([C@@H](C)O)C(=O)N1)[C@@H](C)O)C(C)C)C(=O)N[C@@H](CC(C)C)C(=O)N[C@@H](CO)C(=O)N[C@@H](CO)C(=O)N[C@H](C(=O)N[C@@H](CC(N)=O)C(=O)N[C@H](C(=O)NCC(=O)N[C@@H](CO)C(=O)N[C@@H](CC(N)=O)C(=O)N[C@H](C(=O)N[C@@H](Cc1ccc(O)cc1)C(N)=O)[C@@H](C)O)C(C)C)[C@@H](C)O [G24P‐hIAPP]
– | Slightly higher concentrations | CC[C@H](C)[C@H](NC(=O)[C@H](C)NC(=O)[C@H](CC(C)C)NC(=O)[C@H](Cc1ccccc1)NC(=O)[C@H](CC(N)=O)NC(=O)[C@H](CC(N)=O)NC(=O)[C@H](CO)NC(=O)[C@H](CO)NC(=O)[C@H](Cc1c[nH]cn1)NC(=O)[C@@H](NC(=O)[C@H](CC(C)C)NC(=O)[C@H](Cc1ccccc1)NC(=O)[C@H](CC(N)=O)NC(=O)[C@H](C)NC(=O)[C@H](CC(C)C)NC(=O)[C@H](CCCNC(=N)N)NC(=O)[C@H](CCC(N)=O)NC(=O)[C@@H](NC(=O)[C@H](C)NC(=O)[C@@H]1CSSC[C@H](NC(=O)[C@@H](N)CCCCN)C(=O)N[C@@H](CC(N)=O)C(=O)N[C@@H]([C@@H](C)O)C(=O)N[C@@H](C)C(=O)N[C@@H]([C@@H](C)O)C(=O)N1)[C@@H](C)O)C(C)C)C(=O)N[C@@H](CC(C)C)C(=O)N[C@@H](CO)C(=O)N[C@@H](CO)C(=O)N[C@H](C(=O)N[C@@H](CC(N)=O)C(=O)N[C@H](C(=O)NCC(=O)N[C@@H](CO)C(=O)N[C@@H](CC(N)=O)C(=O)N[C@H](C(=O)N[C@@H](Cc1ccc(O)cc1)C(N)=O)[C@@H](C)O)C(C)C)[C@@H](C)O [G24L‐hIAPP]
